“Also recorded” adds a separate entry of the source.
How the values were obtained:
[1] = Single-dose pharmacokinetics of Compound 1 with or without cobicistat pretreatment in healthy subjects; type: in vivo, human
Description: (§1) Healthy subjects were treated with Compound 1 with or without pretreatment with cobicistat. A single 400 mg dose of Compound 1 was administered under fasted conditions. There was a 7-day washout between administrations of the two single doses of Compound 1. Compound 1 was administered alone on Day 1 of Period 1 and administered in the presence of cobicistat on Day 1 of Period 2. Cobicistat was administered at a dose of 150 mg once daily for three days, with the third dose preceding the single dose of Compound 1 by two hours. Blood samples were collected for pharmacokinetic analysis of Compound 1 on Day 1 of each period at the following time points 0 (predose), 0.5, 1, 1.5, 2, 3, 4, 6, 8, 10, and 24 hours after the single dose of Compound 1.

CYP3A = experiment: Metabolism by and induction of hepatic enzyme CYP3A; type: in vitro ADME
[2] = Adverse events in healthy subjects treated with Compound 1 with and without cobicistat; type: in vivo, human
Description: as §1
All six subjects were males between the ages of 31 and 52 years. Three of the 6 subjects (50%) treated with Compound 1 with and without cobicistat reported a total of 6 adverse events. Diarrhea, reported in 2 subjects, was the only adverse event reported by more than one subject. The other adverse events reported by a single subject each included: abdominal pain, back pain, groin pain, and upper respiratory tract infection. Three of the 6 adverse events were considered to be related to study drug: concurrent events of diarrhea and abdominal pain and the other case of diarrhea. All adverse events were reported in Period 2, after dosing of all study drugs had been completed.

[3] = Exposure of Compound 1 upon multiple-dose administration; type: in vivo
[4] = single 400 mg Compound 1 with cobicistat 150 mg pretreatment vs alone
[5] = single 400 mg Compound 1 with cobicistat 150 mg pretreatment vs alone, lower bound over all subjects
[6] = 6 healthy male subjects, Compound 1 with and without cobicistat

half-life ([1]; male, human, plasma, oral, all subjects treated with Compound 1 and cobicistat): < 5 h | Clearance decrease in the presence of cobicistat [1, 4]: 6.9 fold | Effect of cobicistat on Tmax [1, 4]: unaffected | AUC increase in the presence of cobicistat, all subjects (least) [1, 5]: ≥ 4.9 fold | Cmax increase in the presence of cobicistat, all subjects (least) [1, 5]: ≥ 2.8 fold | Cmin increase in the presence of cobicistat, all subjects (least) [1, 5]: ≥ 19 fold | Exposure of Compound 1 400 mg with cobicistat 150 mg in healthy subjects compared with single 1600 mg dose of Compound 1 alone in patients with lymphoma ([1]; single dose): remarkably similar | CYP3A induction (CYP3A): stronger inducer of CYP3A | Reduction in AUC with multiple doses [3]: approximately 60%
SMILES: COc1cc(C)[nH]c(=O)c1CNC(=O)c1c(C)n([C@H](C)C2CCN(CC(F)(F)F)CC2)c2ccccc12 [Compound 1, (R)—N-((4-methoxy-6-methyl-2-oxo-1,2-dihydropyridin-3-yl)methyl)-2-methyl-1-(1-(1-(2,2,2-trifluoroethyl)piperidin-4-yl)ethyl)-1H-indole-3-carboxamide]
Effect of cobicistat on terminal half-life (T1/2) [1, 4]: unaffected; also recorded: little or no effect | Primary metabolizing enzyme (CYP3A): primarily metabolized by the hepatic enzyme CYP3A | Number of subjects reporting diarrhea [2, 6]: 2 subjects | Subjects reporting adverse events [2, 6]: 50% | Total number of adverse events reported [2, 6]: 6 | Severity of adverse events ([2]; with the exception of a moderate case of upper respiratory tract infection): mild in severity

Source: US20210000815A1, “PHARMACOKINETIC ENHANCEMENT OF EZH2 INHIBITORS THROUGH COMBINATION THERAPIES” (Constellation Pharmaceuticals, Inc., priority 2017, published 2021)
